Source: patent US20230339952A1, “MACROCYCLIC HETEROCYCLES AND USES THEREOF” (Kumquat Biosciences Inc., priority 2022, published 2023)
Read-outs that look alike come from different tables or passages of the source.

Legend:
SOS1 = SOS1 (Homo sapiens (Human), UniProt Q07889); assay: Ras-SOS interaction assay (HTRF), K-Ras G13D utilized; assay type: binding; details: K-Ras G13D
[1] = test system: MIA PaCa-2 cells (K-Ras G12C); assay: Ras-SOS cellular growth inhibition assay (CellTiter-Glo); details: Homo sapiens, MIA PaCa-2, 120 h, read-out: IC50 in inhibiting MIA PaCa-2 cell growth
Method: A CellTiter-Glo (CTG) luminescent based assay (Promega) is used to assess growth of the cells, as a measurement of the ability of the compounds herein to inhibit Ras signaling in the cells. […] The day after plating, cells are treated with a dilution series (e.g., a 9 point 3-fold dilution series) of the compounds herein (e.g., approximately 125 μL final volume per well). Cell viability can be monitored (e.g., approximately 5 days later) according to the manufacturer's recommended instructions, where the CellTiter-Glo reagent is added (e.g., approximately 65 μL), vigorously mixed, covered, and placed on a plate shaker (e.g., approximately for 20 min) to ensure sufficient cell lysis prior to assessment of luminescent signal. The IC50 values are determined using the four-parameter fit. The resulting IC50 value is a measurement of the ability of the compounds herein to reduce cell growth of Ras-driven cells as representative tumor cells.

[2] = test system: NCI-H1975 (ATCC CRL-5908) cell line comprising an EGFR T790M L858R double mutation; assay: EGFR-SOS cellular inhibition assay (CellTiter-Glo cell proliferation); assay type: cell-based; details: Homo sapiens
Method: A CellTiter-Glo (CTG) luminescent based assay (Promega) is used to assess growth of the cells, as a measurement of the ability of the compounds herein to inhibit EGFR signaling in the cells. […] The day after plating, cells are treated with a dilution series (e.g., a 9 point 3-fold dilution series) of the compounds herein (e.g., approximately 125 μL final volume per well).

[3] = 120 h, NCI-H1975 cell proliferation, approximately 5 days, read-out: H1975 IC50
[4] = NCI-H1975, EGFR T790M L858R double mutation, read-out: IC50 in inhibiting growth of NCI-H1975 cell line
[5] = read-out: IC50 value against SOS1

Sequence of SOS1 (Q07889 564-1049): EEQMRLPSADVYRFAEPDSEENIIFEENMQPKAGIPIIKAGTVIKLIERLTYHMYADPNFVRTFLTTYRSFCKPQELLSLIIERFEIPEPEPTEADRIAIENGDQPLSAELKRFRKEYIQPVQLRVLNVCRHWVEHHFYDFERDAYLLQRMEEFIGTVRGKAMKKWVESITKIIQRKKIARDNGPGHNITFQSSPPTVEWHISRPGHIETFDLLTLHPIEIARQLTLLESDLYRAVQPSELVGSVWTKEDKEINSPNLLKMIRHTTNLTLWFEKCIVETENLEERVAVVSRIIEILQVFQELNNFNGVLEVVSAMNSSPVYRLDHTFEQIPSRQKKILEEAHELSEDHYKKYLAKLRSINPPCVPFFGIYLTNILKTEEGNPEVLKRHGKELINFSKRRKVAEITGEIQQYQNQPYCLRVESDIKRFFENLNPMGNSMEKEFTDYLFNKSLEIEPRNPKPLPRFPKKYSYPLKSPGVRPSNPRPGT

| SMILES | IC50 (SOS1; read-out: SOS1 IC50) | IC50 [1] | IC50 [2, 3] | IC50 [2, 4] | IC50 (SOS1; [5]) |
| --- | --- | --- | --- | --- | --- |
| C[C@H]1Nc2nc(=O)n(c3c2cc(C2(C#N)CC2)c(=O)n3C)CC/C=C\CN2CCC(CC2)C(F)(F)c2cccc1c2 [Compound 6, 1-((6^3E,4R,9Z)-2,2-difluoro-6^8,4-dimethyl-6^2,6^7-dioxo-6^1,6^2,6^7,6^8-tetrahydro-5-aza-6(4,1)-pyrido[2,3-d]pyrimidina-1(4,1)-piperidina-3(1,3)-benzenacycloundecaphan-9-en-6^6-yl)cyclopropane-1-carbonitrile] | < 100 nM | < 1000 nM | < 1000 nM | < 500 nM |  |
| Cc1nc2c3cc(C4(C#N)CC4)c(=O)n(c3n1)CCCCCCCCC(C)(O)C(F)(F)c1cccc(c1)[C@@H](C)N2 (stereo partly drawn) [Compound 9, 1-((3R)-5,5-difluoro-6-hydroxy-1^2,3,6-trimethyl-1^7-oxo-1^7,1^8-dihydro-2-aza-1(4,8)-pyrido[2,3-d]pyrimidina-4(1,3)-benzenacyclotetradecaphane-1^6-yl)cyclopropane-1-carbonitrile] | 100 to 5000 nM | < 1000 nM | < 1000 nM |  |  |
| C[C@H]1Nc2ncnc3c2cc(C2(C#N)CC2)c(=O)n3CCCCCCCCN2CCC(CC2)C(F)(F)c2cccc1c2 [Compound 54, 1-((4R)-2,2-difluoro-4-methyl-6^7-oxo-6^7,6^8-dihydro-5-aza-6(4,8)-pyrido[2,3-d]pyrimidina-1(4,1)-piperidina-3(1,3)-benzenacyclotetradecaphane-6^6-yl)cyclopropane-1-carbonitrile] |  | < 1000 nM | < 1000 nM | < 500 nM |  |
| C[C@H]1Nc2ncnc3c2cc(C2(C#N)CC2)c(=O)n3CCCCCCCN2CCC(CC2)C(F)(F)c2cccc1c2 [Compound 61, 1-((4R)-2,2-difluoro-4-methyl-6^7-oxo-6^7,6^8-dihydro-5-aza-6(4,8)-pyrido[2,3-d]pyrimidina-1(4,1)-piperidina-3(1,3)-benzenacyclotridecaphane-6^6-yl)cyclopropane-1-carbonitrile] | < 100 nM | < 1000 nM | < 1000 nM | < 500 nM | < 50 nM |
| Cc1nc2c3cc(C4CCS(=O)(=O)CC4)c(=O)n(c3n1)CCCCC/C=C\CC(C)(O)C(F)(F)c1cccc(c1)[C@@H](C)N2 (stereo partly drawn) [Compound 101, (3R,Z)-1^6-(1,1-dioxidotetrahydro-2H-thiopyran-4-yl)-5,5-difluoro-6-hydroxy-1^2,3,6-trimethyl-1^7,1^8-dihydro-2-aza-1(4,8)-pyrido[2,3-d]pyrimidina-4(1,3)-benzenacyclotetradecaphan-8-en-1^7-one] | < 100 nM | < 1000 nM | < 1000 nM | < 500 nM | < 50 nM |
| C[C@H]1Nc2ncnc3c2cc(C2(C#N)CC2)c(=O)n3CCCCC/C=C\CN2CCC(CC2)C(F)(F)c2cccc1c2 [Compound 120, 1-((4R,Z)-2,2-difluoro-4-methyl-6^7-oxo-6^7,6^8-dihydro-5-aza-6(4,8)-pyrido[2,3-d]pyrimidina-1(4,1)-piperidina-3(1,3)-benzenacyclotetradecaphan-12-en-6^6-yl)cyclopropane-1-carbonitrile] | < 100 nM | < 1000 nM | < 1000 nM | < 500 nM | < 50 nM |
| C[C@H]1Nc2ncnc3c2cc(N2CCN(C4COC4)CC2)c(=O)n3CCCCCCCN2CCC(CC2)C(F)(F)c2cccc1c2F [Compound 179, (4R)-3^2,2,2-trifluoro-4-methyl-6^6-(4-(oxetan-3-yl)piperazin-1-yl)-6^7,6^8-dihydro-5-aza-6(4,8)-pyrido[2,3-d]pyrimidina-1(4,1)-piperidina-3(1,3)-benzenacyclo-tridecaphan-6^7-one] | < 100 nM |  | < 1000 nM |  |  |
| C[C@H]1Nc2ncnc3c2cc(N2CCN(S(C)(=O)=O)CC2)c(=O)n3CCCCCCCN2CCC(CC2)C(F)(F)c2cccc1c2F [Compound 180, (4R)-3^2,2,2-trifluoro-4-methyl-6^6-(4-(methylsulfonyl)piperazin-1-yl)-6^7,6^8-dihydro-5-aza-6(4,8)-pyrido[2,3-d]pyrimidina-1(4,1)-piperidina-3(1,3)-benzenacyclotride-caphan-6^7-one] | < 100 nM |  | < 1000 nM |  |  |
| C[C@H]1Nc2ncnc3c2cc(N2CCS(=O)(=O)CC2)c(=O)n3CCCCCN2CCC(CC2)CCC(F)(F)c2cccc1c2 [Compound 181, (3R)-1^6-(1,1-dioxidothiomorpholino)-5,5-difluoro-3-methyl-1^7,1^8-dihydro-2-aza-1(4,8)-pyrido[2,3-d]pyrimidina-8(4,1)-piperidina-4(1,3)-benzenacyclotridecaphan-1^7-one] | < 100 nM |  | < 1000 nM |  |  |
| C[C@H]1Nc2ncnc3c2cc(N2CCS(=O)(=O)CC2)c(=O)n3CCCOCCCCN2CCC(CC2)C(F)(F)c2cccc1c2 [Compound 186, (4R)-6^6-(1,1-dioxidothiomorpholino)-2,2-difluoro-4-methyl-6^7,6^8-dihydro-10-oxa-5-aza-6(4,8)-pyrido[2,3-d]pyrimidina-1(4,1)-piperidina-3(1,3)-benzenacyclotetradecaphan-6^7-one] | < 100 nM |  | < 1000 nM |  |  |
| C[C@H]1Nc2ncnc3c2cc(C2(C#N)CCS(=O)(=O)CC2)c(=O)n3CCCOCCCN2CCC(CC2)CC(F)(F)c2cccc1c2 [Compound 189, 4-((3R)-5,5-difluoro-3-methyl-1^7-oxo-1^7,1^8-dihydro-11-oxa-2-aza-1(4,8)-pyrido[2,3-d]pyrimidina-7(4,1)-piperidina-4(1,3)-benzenacyclotetradecaphane-1^6-yl)tetrahydro-2H-thiopyran-4-carbonitrile 1,1-dioxide] | < 100 nM |  | < 1000 nM |  |  |
| CC(C)N1CCN(c2cc3c4ncnc3n(c2=O)CCCOCCCCN2CCC(CC2)C(F)(F)c2cccc(c2)[C@@H](C)N4)CC1 [Compound 190, (4R)-2,2-difluoro-6^6-(4-isopropylpiperazin-1-yl)-4-methyl-6^7,6^8-dihydro-10-oxa-5-aza-6(4,8)-pyrido[2,3-d]pyrimidina-1(4,1)-piperidina-3(1,3)-benzenacyclotetradecaphan-6^7-one] | < 100 nM |  | < 1000 nM |  |  |
| C[C@H]1Nc2ncnc3c2cc(C2CCS(=O)(=O)CC2)c(=O)n3CCCOCCCN2CCC(CC2)CC(F)(F)c2cccc1c2F [Compound 191, (3R)-1^6-(1,1-dioxidotetrahydro-2H-thiopyran-4-yl)-4^2,5,5-trifluoro-3-methyl-1^7,1^8-dihydro-11-oxa-2-aza-1(4,8)-pyrido[2,3-d]pyrimidina-7(4,1)-piperidina-4(1,3)-benzenacyclotetradecaphan-1^7-one] | < 100 nM |  | < 1000 nM |  |  |
| C[C@H]1Nc2ncnc3c2cc(C2CCS(=O)(=O)CC2)c(=O)n3CCCOCCCCN2CCC(CC2)C(F)(F)c2cccc1c2F [Compound 203, (4R)-6^6-(1,1-dioxidotetrahydro-2H-thiopyran-4-yl)-3^2,2,2-trifluoro-4-methyl-6^7,6^8-dihydro-10-oxa-5-aza-6(4,8)-pyrido[2,3-d]pyrimidina-1(4,1)-piperidina-3(1,3)-benzenacyclotetradecaphan-6^7-one] | < 100 nM |  | < 1000 nM |  |  |
| C[C@H]1Nc2ncnc3c2cc(N2CCS(=O)(=O)CC2)c(=O)n3CCCOCCCCN2CC(C2)CC(F)(F)c2cccc1c2 [Compound 209, (3R)-1^6-(1,1-dioxidothiomorpholino)-5,5-difluoro-3-methyl-1^7,1^8-dihydro-12-oxa-2-aza-1(4,8)-pyrido[2,3-d]pyrimidina-7(3,1)-azetidina-4(1,3)-benzenacyclopentade-caphan-1^7-one] | < 100 nM |  | < 1000 nM | < 500 nM | < 50 nM |
| C[C@H]1Nc2ncnc3c2cc(C2(C#N)CCS(=O)(=O)CC2)c(=O)n3CCCCCCCN2CC(C2)CC(F)(F)c2cccc1c2 [Compound 210, 4-((3R)-5,5-difluoro-3-methyl-1^7-oxo-1^7,1^8-dihydro-2-aza-1(4,8)-pyrido[2,3-d]pyrimidina-7(3,1)-azetidina-4(1,3)-benzenacyclotetradecaphane-1^6-yl)tetrahydro-2H-thiopyran-4-carbonitrile 1,1-dioxide] | < 100 nM |  | < 1000 nM | < 500 nM | < 50 nM |
| C[C@H]1Nc2ncnc3c2cc(N2CCS(=O)(=O)CC2)c(=O)n3CCCCCCCN2CC(C2)CC(F)(F)c2cccc1c2 [Compound 211, (3R)-1^6-(1,1-dioxidothiomorpholino)-5,5-difluoro-3-methyl-1^7,1^8-dihydro-2-aza-1(4,8)-pyrido[2,3-d]pyrimidina-7(3,1)-azetidina-4(1,3)-benzenacyclotetradecaphan-1^7-one] | < 100 nM |  | < 1000 nM | < 500 nM | < 50 nM |
| C[C@H]1Nc2ncnc3c2cc(C2CCS(=O)(=O)CC2)c(=O)n3CCCCCCCN2CC(C2)CC(F)(F)c2cccc1c2F [Compound 212, (3R)-1^6-(1,1-dioxidotetrahydro-2H-thiopyran-4-yl)-4^2,5,5-trifluoro-3-methyl-1^7,1^8-dihydro-2-aza-1(4,8)-pyrido[2,3-d]pyrimidina-7(3,1)-azetidina-4(1,3)-benzenacyclotetradecaphan-1^7-one] | < 100 nM |  | < 1000 nM | < 500 nM | < 50 nM |
| C[C@H]1Nc2ncnc3c2cc(C2(C#N)CCS(=O)(=O)CC2)c(=O)n3CCCCCCN2CC(CCC(F)(F)c3cccc1c3)C2 [Compound 213, 4-((3R)-5,5-difluoro-3-methyl-1^7-oxo-1^7,1^8-dihydro-2-aza-1(4,8)-pyrido[2,3-d]pyrimidina-8(3,1)-azetidina-4(1,3)-benzenacyclotetradecaphane-1^6-yl)tetrahydro-2H-thiopyran-4-carbonitrile 1,1-dioxide] | < 100 nM |  | < 1000 nM | < 500 nM | < 50 nM |
